Several values for one entry are separate records, joined by “and”; a condition that tells them apart may be missing. Equal entries are not always repeated.
Assays:
[1] = system: IGROV1; test: NCI-60 one-dose SRB screen (Ovarian cancer); type: cell-based; settings: Homo sapiens, IGROV-1, single dose 10 µM, 48 h, read-out: Growth inhibition percent (GI %)
[2] = system: OVCAR-4; test: NCI-60 one-dose SRB screen (Ovarian cancer); type: cell-based; settings: Homo sapiens, single dose 10 µM, 48 h, read-out: Growth inhibition percent (GI %)
[3] = system: OVCAR-8; test: NCI-60 one-dose SRB screen (Ovarian cancer); type: cell-based; settings: Homo sapiens, single dose 10 µM, 48 h, read-out: Growth inhibition percent (GI %)
[4] = system: OVCAR-5; test: NCI-60 one-dose SRB screen (Ovarian cancer); type: cell-based; settings: Homo sapiens, single dose 10 µM, 48 h, read-out: Growth inhibition percent (GI %)
[5] = system: NCI/ADR-RES; test: NCI-60 one-dose SRB screen (Ovarian cancer); type: cell-based; settings: Homo sapiens, single dose 10 µM, 48 h, read-out: Growth inhibition percent (GI %)
[6] = system: SK-OV-3; test: NCI-60 one-dose SRB screen (Ovarian cancer); type: cell-based; settings: Homo sapiens, single dose 10 µM, 48 h, read-out: Growth inhibition percent (GI %)
[7] = system: OVCAR-3; test: NCI-60 one-dose SRB screen (Ovarian cancer); type: cell-based; settings: Homo sapiens, single dose 10 µM, 48 h, read-out: Growth inhibition percent (GI %)
[8] = system: SF-268; test: NCI-60 one-dose SRB screen (CNS Cancer); type: cell-based; settings: Homo sapiens, single dose 10 µM, 48 h, read-out: Growth inhibition percent (GI %)
[9] = system: SNB-75; test: NCI-60 one-dose SRB screen (CNS Cancer); type: cell-based; settings: Homo sapiens, single dose 10 µM, 48 h, read-out: Growth inhibition percent (GI %)
[10] = system: SNB-19; test: NCI-60 one-dose SRB screen (CNS Cancer); type: cell-based; settings: Homo sapiens, single dose 10 µM, 48 h, read-out: Growth inhibition percent (GI %)
[11] = system: U251; test: NCI-60 one-dose SRB screen (CNS Cancer); type: cell-based; settings: Homo sapiens, U-251, single dose 10 µM, 48 h, read-out: Growth inhibition percent (GI %)
[12] = system: SF-539; test: NCI-60 one-dose SRB screen (CNS Cancer); type: cell-based; settings: Homo sapiens, single dose 10 µM, 48 h, read-out: Growth inhibition percent (GI %)
[13] = system: SF-295; test: NCI-60 one-dose SRB screen (CNS Cancer); type: cell-based; settings: Homo sapiens, single dose 10 µM, 48 h, read-out: Growth inhibition percent (GI %)
[14] = system: MDA-MB-231/ATCC; test: NCI-60 one-dose SRB screen (Breast Cancer); type: cell-based; settings: Homo sapiens, single dose 10 µM, 48 h, read-out: Growth inhibition percent (GI %)
[15] = system: MDA-MB-468; test: NCI-60 one-dose SRB screen (Breast Cancer); type: cell-based; settings: Homo sapiens, single dose 10 µM, 48 h, read-out: Growth inhibition percent (GI %)
[16] = system: MCF-7; test: NCI-60 one-dose SRB screen (Breast Cancer); type: cell-based; settings: Homo sapiens, MCF7, single dose 10 µM, 48 h, read-out: Growth inhibition percent (GI %)
[17] = system: HS 578T; test: NCI-60 one-dose SRB screen (Breast Cancer); type: cell-based; settings: Homo sapiens, single dose 10 µM, 48 h, read-out: Growth inhibition percent (GI %)
[18] = system: NCI-H460; test: NCI-60 one-dose SRB screen (Non-Small Cell Lung Cancer); type: cell-based; settings: Homo sapiens, single dose 10 µM, 48 h, read-out: Growth inhibition percent (GI %)
[19] = system: NCI-H522; test: as above; type: cell-based; settings: Homo sapiens, single dose 10 µM, 48 h, read-out: Growth inhibition percent (GI %)
[20] = system: HOP-92; test: as above; type: cell-based; settings: Homo sapiens, single dose 10 µM, 48 h, read-out: Growth inhibition percent (GI %)
[21] = system: NCI-H226; test: as above; type: cell-based; settings: Homo sapiens, single dose 10 µM, 48 h, read-out: Growth inhibition percent (GI %)
[22] = system: EKVX; test: as above; type: cell-based; settings: Homo sapiens, single dose 10 µM, 48 h, read-out: Growth inhibition percent (GI %)
[23] = system: HOP-62; test: as above; type: cell-based; settings: Homo sapiens, single dose 10 µM, 48 h, read-out: Growth inhibition percent (GI %)
[24] = system: A549/ATCC; test: as above; type: cell-based; settings: Homo sapiens, single dose 10 µM, 48 h, read-out: Growth inhibition percent (GI %)
[25] = system: NCI-H23; test: as above; type: cell-based; settings: Homo sapiens, single dose 10 µM, 48 h, read-out: Growth inhibition percent (GI %)
[26] = system: NCI-H322M; test: as above; type: cell-based; settings: Homo sapiens, single dose 10 µM, 48 h, read-out: Growth inhibition percent (GI %)
[27] = system: MALME-3M; test: NCI-60 one-dose SRB screen (Melanoma); type: cell-based; settings: Homo sapiens, single dose 10 µM, 48 h, read-out: Growth inhibition percent (GI %)
[28] = system: SK-MEL-5; test: NCI-60 one-dose SRB screen (Melanoma); type: cell-based; settings: Homo sapiens, single dose 10 µM, 48 h, read-out: Growth inhibition percent (GI %)
[29] = system: LOX IMVI; test: NCI-60 one-dose SRB screen (Melanoma); type: cell-based; settings: Homo sapiens, single dose 10 µM, 48 h, read-out: Growth inhibition percent (GI %)
[30] = system: SK-MEL-2; test: NCI-60 one-dose SRB screen (Melanoma); type: cell-based; settings: Homo sapiens, single dose 10 µM, 48 h, read-out: Growth inhibition percent (GI %)
[31] = system: UACC-257; test: NCI-60 one-dose SRB screen (Melanoma); type: cell-based; settings: Homo sapiens, single dose 10 µM, 48 h, read-out: Growth inhibition percent (GI %)
[32] = system: UACC-62; test: NCI-60 one-dose SRB screen (Melanoma); type: cell-based; settings: Homo sapiens, single dose 10 µM, 48 h, read-out: Growth inhibition percent (GI %)
[33] = system: MDA-MB-435; test: NCI-60 one-dose SRB screen (Melanoma); type: cell-based; settings: Homo sapiens, single dose 10 µM, 48 h, read-out: Growth inhibition percent (GI %)
[34] = system: SK-MEL-28; test: NCI-60 one-dose SRB screen (Melanoma); type: cell-based; settings: Homo sapiens, single dose 10 µM, 48 h, read-out: Growth inhibition percent (GI %)
[35] = system: M14; test: NCI-60 one-dose SRB screen (Melanoma); type: cell-based; settings: Homo sapiens, single dose 10 µM, 48 h, read-out: Growth inhibition percent (GI %)
[36] = system: PC-3; test: NCI-60 one-dose SRB screen (Prostate Cancer); type: cell-based; settings: Homo sapiens, single dose 10 µM, 48 h, read-out: Growth inhibition percent (GI %)
[37] = system: DU-145; test: NCI-60 one-dose SRB screen (Prostate Cancer); type: cell-based; settings: Homo sapiens, single dose 10 µM, 48 h, read-out: Growth inhibition percent (GI %)
[38] = target: hCA IX (Homo sapiens, UniProt Q16790); test: CA inhibitory activity, spectrophotometric p-NPA assay; type: biochemical; settings: p-NPA substrate, pH 7.5, 25 °C, triplicate; read-out: IC50 (µM) ± SD hCA IX
Method: The software used to calculate CA IC50 along with statistical analysis of the results is GraphPad Prism 9.00. Results were estimated by using one-way ANOVA and the Bonferroni’s multiple comparisons posthoc test was performed (P < 0.05) [46]
Carbonic anhydrase inhibitory activity:
The spectrophotometric assay was conducted in HEPES-Tris buffer, NaCl of pH 7.5 (20mM) at 25◦C. Each inhibitory well-consisted of 50 μL of assay buffer solution, 20 μL of hCA enzyme solution (20 ng/μL in Assay Buffer), and 50 μL of test compound in HPLC grade DMSO (maintain 10% of the final concentration). The mixture solution was
Substrate p-nitrophenyl acetate (p-NPA) (0.7mM) was prepared in HPLC grade methanol and the reaction was started by adding 20 μL to a well in a 96-well-plate. The amount of product formed was measured for 30 min continuously at 1 min intervals at 400 nm in a 96-well-plate using xMARK microplate spectrophotometer, Bio-Rad (USA). The activity of the controlled compound was taken as 100%. All experiments were carried out in triplicates of each used concentration, and results are represented as a

[39] = target: hCA XII (Homo sapiens, UniProt O43570); test: CA inhibitory activity, spectrophotometric p-NPA assay; type: biochemical; settings: p-NPA substrate, pH 7.5, 25 °C, triplicate; read-out: IC50 (µM) ± SD hCA XII
[40] = system: CCRF-CEM; test: NCI-60 one-dose SRB screen (Leukemia); type: cell-based; settings: Homo sapiens, single dose 10 µM, 48 h, read-out: Growth inhibition percent (GI %)
[41] = system: RPMI-8226; test: NCI-60 one-dose SRB screen (Leukemia); type: cell-based; settings: Homo sapiens, single dose 10 µM, 48 h, read-out: Growth inhibition percent (GI %)
[42] = system: K-562; test: NCI-60 one-dose SRB screen (Leukemia); type: cell-based; settings: Homo sapiens, K562, single dose 10 µM, 48 h, read-out: Growth inhibition percent (GI %)
[43] = system: MOLT-4; test: NCI-60 one-dose SRB screen (Leukemia); type: cell-based; settings: Homo sapiens, single dose 10 µM, 48 h, read-out: Growth inhibition percent (GI %)
[44] = system: HL-60(TB); test: NCI-60 one-dose SRB screen (Leukemia); type: cell-based; settings: Homo sapiens, single dose 10 µM, 48 h, read-out: Growth inhibition percent (GI %)
[45] = system: SR; test: NCI-60 one-dose SRB screen (Leukemia); type: cell-based; settings: Homo sapiens, single dose 10 µM, 48 h, read-out: Growth inhibition percent (GI %)

Sequence of hCA XII (O43570 25-354): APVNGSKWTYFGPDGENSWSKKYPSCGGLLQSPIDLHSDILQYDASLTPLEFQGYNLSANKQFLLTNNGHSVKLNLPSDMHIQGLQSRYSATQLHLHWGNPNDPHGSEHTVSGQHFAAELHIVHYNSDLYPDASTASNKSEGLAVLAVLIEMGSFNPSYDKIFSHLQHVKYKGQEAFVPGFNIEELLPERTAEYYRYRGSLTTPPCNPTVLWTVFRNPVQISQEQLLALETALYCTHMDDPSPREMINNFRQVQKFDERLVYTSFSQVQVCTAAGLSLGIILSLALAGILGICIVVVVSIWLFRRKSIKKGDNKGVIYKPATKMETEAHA

SMILES: Cc1ccc(-c2nn(-c3ccc(S(N)(=O)=O)cc3)cc2-c2n[nH]c(=S)[nH]2)cc1 [Compound 11, 4-[4-(5-Mercapto-1H-1,2,4-triazol-3-yl)-3-(p-tolyl)-1H-pyrazol-1-yl] benzenesulfonamide]
- inhibition at 10 µM [1]: < 5%
- inhibition at 10 µM [2]: 10.1%
- inhibition at 10 µM [3]: < 5%
- inhibition at 10 µM [4]: < 5%
- inhibition at 10 µM [5]: < 5%
- inhibition at 10 µM [6]: < 5%
- inhibition at 10 µM [7]: 11.4%
- inhibition at 10 µM [8]: 9.56%
- inhibition at 10 µM [9]: 23.9%
- inhibition at 10 µM [10]: 13%
- inhibition at 10 µM [11]: 5.33%
- inhibition at 10 µM [12]: 8.18%
- inhibition at 10 µM [13]: 9.95%
- inhibition at 10 µM [14]: < 5%
- inhibition at 10 µM [15]: < 5%
- inhibition at 10 µM [16]: 6.49%
- inhibition at 10 µM [17]: < 5%
- inhibition at 10 µM [18]: < 5%
- inhibition at 10 µM [19]: < 5%
- inhibition at 10 µM [20]: < 5%
- inhibition at 10 µM [21]: < 5%
- inhibition at 10 µM [22]: < 5%
- inhibition at 10 µM [23]: < 5%
- inhibition at 10 µM [24]: < 5%
- inhibition at 10 µM [25]: < 5%
- inhibition at 10 µM [26]: < 5%
- inhibition at 10 µM [27]: < 5%
- inhibition at 10 µM [28]: < 5%
- inhibition at 10 µM [29]: 13.5%
- inhibition at 10 µM [30]: < 5%
- inhibition at 10 µM [31]: < 5%
- inhibition at 10 µM [32]: 12.9%
- inhibition at 10 µM [33]: < 5%
- inhibition at 10 µM [34]: < 5%
- inhibition at 10 µM [35]: < 5%
- inhibition at 10 µM [36]: < 5%
- inhibition at 10 µM [37]: < 5%
- IC50 [38]: 0.24 ± 0.011 µM
- melting point: 255 to 257 °C
- IC50 [39]: 0.33 µM and 0.332 µM
- inhibition at 10 µM [40]: < 5%
- inhibition at 10 µM [41]: < 5%
- inhibition at 10 µM [42]: < 5%
- inhibition at 10 µM [43]: 21.1%
- inhibition at 10 µM [44]: < 5%
- inhibition at 10 µM [45]: 15.8%

SMILES: Cc1ccc(-c2nn(-c3ccc(S(N)(=O)=O)cc3)cc2C(=O)NNC(N)=S)cc1 [Compound 9b, 2-[1-(4-Sulfamoylphenyl)-3-(p-tolyl)-1H-pyrazole-4-carbonyl] hydrazine-1-carbothioamide]
- inhibition at 10 µM [1]: < 5%
- inhibition at 10 µM [2]: < 5%
- inhibition at 10 µM [3]: < 5%
- inhibition at 10 µM [4]: < 5%
- inhibition at 10 µM [5]: < 5%
- inhibition at 10 µM [6]: < 5%
- inhibition at 10 µM [7]: < 5%
- inhibition at 10 µM [8]: < 5%
- inhibition at 10 µM [9]: 6.3%
- inhibition at 10 µM [10]: < 5%
- inhibition at 10 µM [11]: < 5%
- inhibition at 10 µM [12]: 5.95%
- inhibition at 10 µM [13]: < 5%
- inhibition at 10 µM [14]: < 5%
- inhibition at 10 µM [15]: < 5%
- inhibition at 10 µM [16]: < 5%
- inhibition at 10 µM [17]: < 5%
- inhibition at 10 µM [18]: < 5%
- inhibition at 10 µM [19]: < 5%
- inhibition at 10 µM [20]: < 5%
- inhibition at 10 µM [21]: < 5%
- inhibition at 10 µM [22]: < 5%
- inhibition at 10 µM [23]: < 5%
- inhibition at 10 µM [24]: < 5%
- inhibition at 10 µM [25]: < 5%
- inhibition at 10 µM [26]: < 5%
- inhibition at 10 µM [27]: < 5%
- inhibition at 10 µM [28]: < 5%
- inhibition at 10 µM [29]: < 5%
- inhibition at 10 µM [30]: < 5%
- inhibition at 10 µM [31]: < 5%
- inhibition at 10 µM [32]: 5.9%
- inhibition at 10 µM [33]: < 5%
- inhibition at 10 µM [34]: < 5%
- inhibition at 10 µM [35]: < 5%
- inhibition at 10 µM [36]: < 5%
- inhibition at 10 µM [37]: < 5%
- IC50 [38]: 0.33 µM and 0.339 µM
- melting point: 178 to 180 °C
- IC50 [39]: 0.33 µM and 0.335 µM
- inhibition at 10 µM [40]: 19.6%
- inhibition at 10 µM [41]: < 5%
- inhibition at 10 µM [42]: < 5%
- inhibition at 10 µM [43]: < 5%
- inhibition at 10 µM [44]: < 5%
- inhibition at 10 µM [45]: < 5%

— PMC12454493, “Insight on novel sulfamoylphenyl pyrazole derivatives as anticancer carbonic anhydrase inhibitors” (Molecular Diversity, 2024)
